Measured values taken from US20120269882A1, “Brain Delivery of Insulin to Treat Systemic Inflammation” (MOUNT SINAI SCHOOL OF MEDICINE Office of Technology & …, priority 2009, published 2012).
“Also recorded” adds a separate entry of the source.

How the values were obtained:
[1] = system: LPS induced pro-inflammatory proteins in liver; assay: Western blot of liver tissue lysates after LPS injection and ICV infusion; format: in vivo, mice; conditions: LPS 1 mg/kg i.p., vs vehicle
Protocol: Quantification of western blot analyses from liver tissue lysates expressed as fold change to vehicle and normalized over β-actin.
Quantification of western blot analyses from liver tissue lysates expressed as fold change to vehicle and normalized over β-actin. Mice were injected with LPS (1 mg/kg, i.p.) and randomly assigned to receive ICV glucose (4 mM) or vehicle infusions for 4 hours until necropsy.

[2] = system: LPS induced pro-inflammatory cytokine levels; assay: Serum TNF-α and IL-6 by ELISA after LPS injection and ICV infusion; format: in vivo; conditions: high fat diet C57B1/6 mice, LPS 1 mg/kg i.p., ICV insulin 0.02 mU/h for 4 h vs vehicle, p<0.05
Protocol: (§1) FIG. 1A-B: FIG. 1A, Experimental protocol for high fat diet feeding and intracerebroventricular (ICV) cannula implantation. 4 week old male C57B1/6 mice were fed a high fat diet for 4 weeks and ICV cannulae were implanted. After 5 days recovery from surgery infusion studies were performed. FIG. 1B, Protocol for infusion studies. Mice were injected with lipopolysaccharides (LPS) (1 mg/kg, i.p.) and randomly assigned to receive ICV insulin or vehicle infusions for 4 hours until necropsy.
FIG. 3: ICV insulin treatment reduces LPS induced pro-inflammatory cytokine levels. Mice were injected with LPS (1mg/kg, i.p.) infused with central insulin (0.02 mU/h) or vehicle for 4 h and sacrificed. Serum concentrations of TNF-α and IL-6 were determined by ELISA. n=12-14 per group, *p<0.05.
Male C57B1/6 mice were weaned at 4 weeks of age and fed a High Fat Diet (HFD) for 35 days to induce insulin resistance. After 30 days of HFD feeding, the mice underwent stereotactic surgery to implant intracerebroventricular (ICV) guide cannula (see, FIG. 2 for an illustration of cannula placement) followed by a 5-day recovery period until infusion experiments were carried out. […]

[3] = system: LPS induced pro-inflammatory proteins in spleen; assay: Western blot of spleen tissue lysates after LPS injection and ICV infusion; format: in vivo, mice; conditions: LPS 1 mg/kg i.p., ICV infusion 4 h, vs vehicle
Protocol: as §1
FIG. 4: ICV insulin treatment reduces LPS induced pro-inflammatory proteins in spleen. Quantification of Western blot analyses from spleen tissue lysates expressed as fold change to vehicle and normalized over β-actin. Activation of the transcription factors Stat1 and Stat3 is decreased. The pro-inflammatory markers IL-1β, COX2 and IKK-β are reduced in the ICV insulin infused animals. n=6 per group, *p<0.05.
(§2) Male C57B1/6 mice were weaned at 4 weeks of age and fed a High Fat Diet (HFD) for 35 days to induce insulin resistance. After 30 days of HFD feeding, the mice underwent stereotactic surgery to implant intracerebroventricular (ICV) guide cannula (see, FIG. 2 for an illustration of cannula placement) followed by a 5-day recovery period until infusion experiments were carried out. On the day of the experiment, animals were placed in individual cages, received an intraperitoneal (i.p.) injection of E. coli (LPS) (1 mg/kg) and were continuously ICV infused using a micro infusion pump with Artificial CerebroSpinal Fluid (ACSF) or Insulin (0.005 mU/h) for 4 hours, yielding a total dose of 0.020 mU. See FIG. 1A-B for a graphical illustration of the protocol.
(§3) To investigate whether central insulin reduces cytokine signaling in peripheral tissues, the expression and phosphorylation of signal transducer and activator of transcription (Stat) was measured in lung (FIG. 4), spleen (FIG. 5) and liver (FIG. 6) tissue by western blot. […] Likewise, the activation of Stat3 which plays a central role in signaling of IL-6 and related cytokines was decreased in peripheral tissues after ICV insulin infusion. Lower protein levels of the pro-inflammatory cytokine IL-1β were detectable in the insulin-infused animals in liver, spleen and lung tissue. Lower IL-1β levels in lung tissue has been associated with improvement of acute lung injury, which is a clinically important sequelae in sepsis.

[4] = system: LPS induced pro-inflammatory proteins in lung; assay: Western blot of lung tissue lysates after LPS injection and ICV infusion; format: in vivo, mice; conditions: LPS 1 mg/kg i.p., ICV infusion 4 h, vs vehicle
Protocol: as §1
FIG. 5: ICV insulin treatment reduces LPS induced pro-inflammatory proteins in lung. Quantification of Western blot analyses from lung tissue lysates expressed as fold change to vehicle and normalized over α-tubulin. Activation of the transcription factors Stat1 is decreased by central insulin. The level of the pro-inflammatory cytokine IL-1β is reduced in the ICV insulin infused animals. n=6 per group, *p<0.05.
Male C57B1/6 mice were weaned at 4 weeks of age and fed a High Fat Diet (HFD) for 35 days to induce insulin resistance. […]
To investigate whether central insulin reduces cytokine signaling in peripheral tissues, the expression and phosphorylation of signal transducer and activator of transcription (Stat) was measured in lung (FIG. 4), spleen (FIG. 5) and liver (FIG. 6) tissue by western blot. […]

[5] = system: signal transducer and activator of transcription (Stat); assay: Stat expression and phosphorylation in peripheral tissues (lung, spleen, liver) by western blot; format: in vivo, mice; conditions: after ICV insulin infusion
Protocol: as §2
as §3, with “Lower IL-1β levels in lung tissue has been associated with improvement of acute lung injury, which is a clinically important sequelae in sepsis.” left out

[6] = system: LPS-treated mice; assay: Survival in a mouse model of sepsis (LPS 5 mg/kg, i.p.); format: in vivo; conditions: high fat diet C57B16 mice, ICV infusion up to 5 days, vs vehicle, assessed daily
Protocol: FIG. 9: ICV insulin improves survival in a mouse model of sepsis. 4 weeks old C57B16 mice were fed high fat diet for 4 weeks and ICV cannulas were implanted. Mice were injected with LPS (5 mg/kg, ip) and randomly assigned to receive ICV insulin or vehicle infusions for up to 5 days (n=11 per group). Survival was assessed daily as depicted.
In view of the potent anti-inflammatory effects mediated by insulin when administered to the CNS, studies were undertaken to determine whether administration of insulin to the CNS would protect mice from death in a sepsis model. 4-week old C57B16 mice were fed high fat diet for 4 weeks and ICV cannulas were implanted as described above. Mice were injected with LPS (5 mg/kg, i.p.) and randomly assigned to receive ICV insulin or vehicle infusions for up to 5 days (n=11 per group). Survival was assessed daily and results were plotted, see, e.g., FIG. 9.

[7] = ICV insulin 4 h, normalized over β-actin

| Molecule | Activation of Stat1 in liver ([1]; ICV glucose 4 mM for 4 hours) | Activation of Stat3 in liver ([1]; ICV glucose 4 mM for 4 hours) | IKK-β levels in liver (NF-κB signaling) ([1]; ICV glucose 4 mM for 4 hours) | PDI expression in liver (marker for ER stress) ([1]; ICV glucose 4 mM for 4 hours) | Serum concentration of IL-6 [2] | Serum concentration of TNF-α [2] | COX2 protein in spleen [3] | IKK-β protein in spleen [3] | IL-1β protein in spleen [3] | Activation of Stat1 in spleen ([3]; normalized over β-actin) | Activation of Stat3 in spleen ([3]; normalized over β-actin) | IL-1β protein in lung [4] | Activation of Stat1 in lung ([4]; normalized over α-tubulin) | IL-1β protein in liver ([1]; ICV insulin 4 h) | Activation of Stat1 in liver [1, 7] | Activation of Stat3 in liver [1, 7] | Activation of Stat3 in peripheral tissues [5] | LPS induced phosphorylation of Stat1 ([5]; measured in lung, spleen and liver) | Survival [6] |
| --- | --- | --- | --- | --- | --- | --- | --- | --- | --- | --- | --- | --- | --- | --- | --- | --- | --- | --- | --- |
| O=C[C@H](O)[C@@H](O)[C@H](O)[C@H](O)CO [glucose] | significantly increased | significantly increased | Higher levels | Higher levels; also recorded: elevated | – | – | – | – | – | – | – | – | – | – | – | – | – | – | – |
| insulin | – | – | – | – | reduces | reduces | reduced | reduced | reduced; also recorded: Lower | decreased | decreased | reduced; also recorded: Lower | decreased | reduced; also recorded: Lower | decreased | decreased | decreased | marked inhibition | significantly (p=0.0194) improved; also recorded: significantly improve the survival |
